Values joined by “and” are separate entries in the source; they are usually repeats but may differ in a detail not shown here. Identical values can stand only once. Like-named read-outs stand apart in the source and are kept apart here.
How the values were obtained:
S. aureus ATCC 29213 = assay: MIC, broth microdilution; format: cell-based, Staphylococcus aureus; conditions: Staphylococcus aureus
In short: (§1)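 Broth microdilution at 5 × 10^5 CFU/mL final inoculum, cation-adjusted Mueller–Hinton broth for staphylococci and brain heart infusion for enterococci, incubated aerobically overnight at 37 °C.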

[1] = system: methicillin-resistant S. aureus 63718; assay: MIC, broth microdilution; format: cell-based, Staphylococcus aureus; conditions: Staphylococcus aureus, read-out: MICs
In short: as §1

[2] = system: methicillin-resistant S. aureus SA 3202; assay: MIC, broth microdilution; format: cell-based, Staphylococcus aureus; conditions: Staphylococcus aureus, read-out: MICs
In short: as §1

[3] = system: methicillin-resistant S. aureus SA 630; assay: MIC, broth microdilution; format: cell-based, Staphylococcus aureus; conditions: Staphylococcus aureus, read-out: MICs
In short: as §1

E. faecalis ATCC 29212 = assay: MIC, broth microdilution; format: cell-based, Enterococcus faecalis; conditions: Enterococcus faecalis, ATCC 29212 / ATCC 29213; EF = E. faecalis ATCC 29213
In short: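 Each strain, standardized to 0.5 McFarland and brought to a final 5 × 10^5 CFU/mL, was exposed to compound dilutions in genus-appropriate medium (cation-adjusted MH for S. aureus, BHI for enterococci). It was then held overnight under air at 37 °C before growth inhibition was scored.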

[4] = system: vancomycin-resistant enterococci VRE 342B; assay: MIC, broth microdilution; format: cell-based, Enterococcus faecalis; conditions: Enterococcus, read-out: MICs
In short: as §1

[5] = system: vancomycin-resistant enterococci VRE 368; assay: MIC, broth microdilution; format: cell-based, Enterococcus faecalis; conditions: Enterococcus, read-out: MICs
In short: as §1

[6] = system: vancomycin-resistant enterococci VRE 725B; assay: MIC, broth microdilution; format: cell-based, Enterococcus faecalis; conditions: Enterococcus, read-out: MICs
In short: as §1

[7] = system: human monocytic leukemia THP-1 cells; assay: in vitro antiproliferative assay (WST-1); format: cell-based; conditions: Homo sapiens, THP-1, 24 h, read-out: Tox IC50
In short: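 THP-1 cells in serum-free RPMI 1640 treated with compounds (DMSO ≤0.1%) for 24 h at 37 °C, 5% CO2, triplicate; viability by WST-1 tetrazolium read-out. IC50 from dose-response curve.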

[8] = system: S. aureus ATCC 29213 biofilm; assay: biofilm inhibition assay (crystal violet); format: cell-based, Staphylococcus aureus; conditions: ≥80% inhibition of biofilm formation; for MBIC80 (minimum biofilm inhibitory concentration): 48 h
Method: The ability of compounds 1f, 1g, and 1h to inhibit biofilm growth and destroy the matured biofilm of S. aureus ATCC 29213 was investigated. The inhibitory activity was studied by the method with crystal violet. The activity to disrupt matured biofilm was evaluated as a decrease of metabolic activity using the MTT assay.
The plates were inoculated by inoculum of S. aureus ATCC 29213 grown in TSB + 2% glucose to exponential phase. Before the inoculation of the plate, the original inoculum was diluted to 1 McFarland and then 1:100 in fresh TSB + 2% glucose, to reach the final concentrations in the wells of […]. […] The plates were incubated at 37 °C for 48 h. After incubation, the contents of the wells were removed, and the plates were washed three times by sterile PBS. After drying, 125 μL of 0.5% crystal violet was added to each well and the plates were stained at room temperature for 20 min. Then the dye was removed, and the plates were washed three times by sterile PBS. The colored biofilm was detached from the wells using 33% solution of acetic acid. The absorbance at 595 nm was measured. As a blank, a non-inoculated plate treated in the same way was used. […] The minimum biofilm inhibitory concentration was the lowest concentration of the compounds, which inhibited the growth of 80% bacteria compared to the growth control. The experiment was made in duplicate and repeated at least three times.

[9] = parameters: method as in PMID 30274224; conditions: isocratic RP-HPLC, extrapolated lipophilicity index; cited from earlier work
[10] = parameters: method as in PMID 30274224; conditions: methanolic solutions, c = 8.0 × 10^−5 M; cited from earlier work
[11] = ATCC29213, SA = S. aureus ATCC 29213, read-out: MICs
[12] = ATCC29213, Table 7, planktonic cells of S. aureus ATCC 29213, read-out: MIC

Compound	MIC (S. aureus ATCC 29213; [11])	MIC (S. aureus ATCC 29213; [12])	MIC ([1]; MRSA1 = S. aureus 63718)	MIC ([2]; MRSA3 = SA 3202)	MIC ([3]; MRSA2 = SA 630)	MIC (E. faecalis ATCC 29212)	MIC ([4]; VRE1 = VRE 342B)	MIC ([5]; VRE2 = VRE 368)	MIC ([6]; VRE3 = VRE 725B)	IC50 ([7]; THP-1 cells, WST-1, 24 h)	minimum biofilm inhibitory concentration relative to MIC against planktonic cells [8]	MBIC80 (minimum biofilm inhibitory concentration) [8]	log kw [9]	log ε2 (Ch-T) [10]	also measured
CCCCCOc1cccc(NC(=O)OC(CN(CCC)CCC)CN2CCCC2)c1.Cl.Cl (centres unmarked) [1f, 1-[3-(dipropylammonio)-2-({[3-(pentyloxy)phenyl]carbamoyl}-oxy)propyl]pyrrolidinium dichloride]	16 µg/mL and 31.6 µM	16 µg/mL	16 µg/mL and 31.6 µM	16 µg/mL and 31.6 µM	32 µg/mL and 63.2 µM	32 µg/mL and 63.2 µM	16 µg/mL and 31.6 µM	16 µg/mL and 31.6 µM	16 µg/mL and 31.6 µM	4.19 ± 0.54 µM	two-fold higher	32 µg/mL	4.6722	4.27	
CCCCCCOc1cccc(NC(=O)OC(CN(CCC)CCC)CN2CCCC2)c1.Cl.Cl (centres unmarked) [1g, 1-[3-(dipropylammonio)-2-({[3-(hexyloxy)phenyl]carbamoyl}oxy)propyl]pyrrolidinium dichloride]	8 µg/mL and 15.4 µM	8 µg/mL	8 µg/mL and 15.4 µM	8 µg/mL and 15.4 µM	16 µg/mL and 30.8 µM	16 µg/mL and 30.8 µM	8 µg/mL and 15.4 µM	8 µg/mL and 15.4 µM	8 µg/mL and 15.4 µM	3.5 ± 0.31 µM	equal to minimum inhibitory concentration against planktonic cells	8 µg/mL	4.9446	4.13	
CCCCCCCOc1cccc(NC(=O)OC(CN(CCC)CCC)CN2CCCC2)c1.Cl.Cl (centres unmarked) [1h, 1-[3-(Dipropylammonio)-2-({[3-(heptyloxy)phenyl]carbamoyl}oxy)propyl]pyrrolidinium dichloride]	8 µg/mL and 15 µM	8 µg/mL	8 µg/mL and 15 µM	8 µg/mL and 15 µM	8 µg/mL and 15 µM	8 µg/mL and 15 µM	4 µg/mL and 7.51 µM	4 µg/mL and 7.51 µM	4 µg/mL and 7.51 µM	3.67 ± 0.01 µM	equal to minimum inhibitory concentration against planktonic cells	8 µg/mL	5.5384	4.27	
CN[C@H](CC(C)C)C(=O)N[C@H]1C(=O)N[C@@H](CC(N)=O)C(=O)N[C@H]2C(=O)N[C@H]3C(=O)N[C@H](C(=O)N[C@H](C(=O)O)c4cc(O)cc(O)c4-c4cc3ccc4O)[C@H](O)c3ccc(c(Cl)c3)Oc3cc2cc(c3O[C@@H]2O[C@H](CO)[C@@H](O)[C@H](O)[C@H]2O[C@H]2C[C@](C)(N)[C@H](O)[C@H](C)O2)Oc2ccc(cc2Cl)[C@H]1O [VAN, vancomycin, reference compound]															MIC (S. aureus ATCC 29213; ATCC29213, read-out: MICs): 1 µg/mL and 0.69 µM; MIC [1]: 2 µg/mL and 1.38 µM; MIC [2]: 1 µg/mL and 0.69 µM; MIC [3]: 1 µg/mL and 0.69 µM; MIC ([4]; VRE): 512 µg/mL and 353 µM; MIC ([5]; VRE): 512 µg/mL and 353 µM; MIC ([6]; VRE): 1020 µg/mL and 706 µM; IC50 [7]: > 30 µM

From PMC7168207, “Dibasic Derivatives of Phenylcarbamic Acid as Prospective Antibacterial Agents Interacting with Cytoplasmic Membrane” (Antibiotics, 2020)
